Laboratory results published in patent US11306081B2, “Phenylacetamides as inhibitors of rock” (BRISTOL-MYERS SQUIBB COMPANY, priority 2017, dated 2022).

Target: ROCK2 (Homo sapiens (Human), UniProt O75116)
Assay: ROCK assay (LABCHIP 3000 peptide phosphorylation assay)
Assay type: biochemical
Conditions: 5 μM ATP, 1.5 μM peptide substrate, dose-response
Method in brief: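 Rho kinase variants in 20 mM HEPES pH 7.5, 20 mM MgCl2, 0.015% Brij-35, 4 mM DTT, 5 μM ATP, 1.5 μM FITC-AHA-AKRRRLSSLRA-OH peptide; DMSO <2%. EDTA-stopped; phosphorylated/non-phosphorylated peptide separated by microfluidic LabChip readout. Dose-response inhibition curve-fitted to give IC50.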

ROCK2, sequence (O75116 whole entry, species assumed): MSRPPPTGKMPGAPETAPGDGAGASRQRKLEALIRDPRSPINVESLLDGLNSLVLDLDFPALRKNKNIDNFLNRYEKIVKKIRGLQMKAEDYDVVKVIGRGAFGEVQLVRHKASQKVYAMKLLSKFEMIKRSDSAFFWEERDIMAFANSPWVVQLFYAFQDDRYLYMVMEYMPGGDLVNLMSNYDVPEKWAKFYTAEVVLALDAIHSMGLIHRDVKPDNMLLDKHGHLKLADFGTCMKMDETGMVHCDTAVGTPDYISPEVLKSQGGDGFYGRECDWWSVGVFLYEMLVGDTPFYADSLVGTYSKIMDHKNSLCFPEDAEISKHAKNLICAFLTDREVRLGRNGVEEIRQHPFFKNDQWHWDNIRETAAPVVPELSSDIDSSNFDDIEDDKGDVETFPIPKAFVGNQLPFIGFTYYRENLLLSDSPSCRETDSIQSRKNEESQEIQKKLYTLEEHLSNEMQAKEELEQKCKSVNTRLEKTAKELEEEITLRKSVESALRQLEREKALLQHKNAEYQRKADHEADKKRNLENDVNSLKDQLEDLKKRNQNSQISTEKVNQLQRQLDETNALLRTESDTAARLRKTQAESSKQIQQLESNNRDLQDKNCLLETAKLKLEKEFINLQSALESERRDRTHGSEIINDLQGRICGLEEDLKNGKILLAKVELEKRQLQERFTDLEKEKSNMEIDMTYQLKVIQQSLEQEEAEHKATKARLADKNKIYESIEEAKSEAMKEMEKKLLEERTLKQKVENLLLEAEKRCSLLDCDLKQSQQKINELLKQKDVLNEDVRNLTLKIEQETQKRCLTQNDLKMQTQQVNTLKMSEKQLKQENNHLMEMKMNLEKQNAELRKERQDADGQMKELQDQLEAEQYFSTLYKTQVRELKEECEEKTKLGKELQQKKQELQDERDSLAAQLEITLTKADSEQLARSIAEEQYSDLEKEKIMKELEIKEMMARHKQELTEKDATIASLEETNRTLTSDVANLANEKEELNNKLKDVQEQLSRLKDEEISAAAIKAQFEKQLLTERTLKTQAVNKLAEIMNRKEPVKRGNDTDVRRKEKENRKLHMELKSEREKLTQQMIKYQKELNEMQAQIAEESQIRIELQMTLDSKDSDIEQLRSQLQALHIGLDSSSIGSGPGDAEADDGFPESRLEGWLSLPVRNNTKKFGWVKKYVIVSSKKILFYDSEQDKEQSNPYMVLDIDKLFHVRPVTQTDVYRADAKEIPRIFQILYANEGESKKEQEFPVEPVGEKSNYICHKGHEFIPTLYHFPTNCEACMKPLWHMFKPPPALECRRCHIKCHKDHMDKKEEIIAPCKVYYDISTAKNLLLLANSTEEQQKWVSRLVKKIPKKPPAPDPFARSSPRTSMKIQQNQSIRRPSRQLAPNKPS

SMILES	IC50 [nM]
Cc1ccc2nc(NC(=O)Cc3ccc(Oc4ncccc4C(N)=O)c(F)c3)nn2c1C [Example 131, 2-(4-(2-((5,6-dimethyl-[1,2,4]-triazolo[1,5-a]-pyridin-2-yl)-amino)-2-oxoethyl)-2-fluorophenoxy)-nicotinamide]	129
NC(=O)c1cccnc1Oc1ccc(CC(=O)Nc2nc3cc(C(F)(F)F)ccn3n2)cc1F [Example 132, 2-(2-fluoro-4-(2-oxo-2-((7-(trifluoro-methyl)-[1,2,4]-triazolo[1,5-a]-pyridin-2-yl)amino)-ethyl)phenoxy)-nicotinamide]	129
NC(=O)c1cccnc1Oc1ccc(CC(=O)Nc2cn3cc(C(F)(F)F)ccc3n2)cc1F [Example 133, 2-(2-fluoro-4-(2-oxo-2-((6-(trifluoro-methyl)imidazo-[1,2-a]pyridin-2-yl)amino)ethyl)-phenoxy)nicotin-amide]	198
NC(=O)c1cccnc1Oc1ccc(CC(=O)Nc2nc3cc(Br)ccn3n2)cc1F [Example 134, 2-(4-(2-((7-bromo-[1,2,4]triazolo[1,5-a]pyridin-2-yl)amino)-2-oxoethyl)-2-fluorophenoxy)nicotinamide]	44
NC(=O)c1cccnc1Oc1ccc(CC(=O)Nc2nc3cc(-c4cnn(C(F)F)c4)ccn3n2)cc1F [Example 135, 2-(4-(2-((7-(1-(difluoro-methyl)-1H-pyrazol-4-yl)-[1,2,4]-triazolo[1,5-a]pyridin-2-yl)amino)-2-oxoethyl)-2-fluorophen-oxy)nicotin-amide]	25
Cc1nn(C)cc1-c1ccn2nc(NC(=O)Cc3ccc(Oc4ncccc4C(N)=O)c(F)c3)nc2c1 [Example 136, 2-(4-(2-((7-(1,3-dimethyl-1H-pyrazol-4-yl)-[1,2,4]-triazolo[1,5-a]pyridin-2-yl)amino)-2-oxoethyl)-2-fluorophen-oxy)nicotin-amide]	11
Cn1nccc1-c1ccn2nc(NC(=O)Cc3ccc(Oc4ncccc4C(N)=O)c(F)c3)nc2c1 [Example 137, 2-(2-fluoro-4-(2-((7-(1-methyl-1H-pyrazol-5-yl)-[1,2,4]-triazolo[1,5-a]pyridin-2-yl)amino)-2-oxoethyl)-phenoxy) nicotinamide]	13
Cn1nccc1-c1ccc2nc(NC(=O)Cc3ccc(Oc4ncccc4C(N)=O)c(F)c3)nn2c1 [Example 138, 2-(2-fluoro-4-(2-((6-(1-methyl-1H-pyrazol-5-yl)-[1,2,4]triazolo[1,5-a]pyridin-2-yl)amino)-2-oxoethyl)phenoxy)nicotinamide]	39
NC(=O)c1cccnc1Oc1ccc(CC(=O)Nc2nc3c(OC(F)F)cccn3n2)cc1F [Example 139, 2-(4-(2-((8-(difluoromethoxy)-[1,2,4]triazolo[1,5-a]pyridin-2-yl)amino)-2-oxoethyl)-2-fluorophenoxy)nicotinamide]	25
NC(=O)c1cccnc1Oc1ccc(CC(=O)Nc2nc3ccc(OC(F)(F)F)cn3n2)cc1F [Example 140, 2-(2-fluoro-4-(2-oxo-2-((6-(trifluoromethoxy)-[1,2,4]triazolo[1,5-a]pyridin-2-yl)amino)ethyl)phenoxy)nicotinamide]	93
NC(=O)c1cccnc1Oc1ccc(CC(=O)Nc2nc3c(C(F)(F)F)cccn3n2)cc1F [Example 141, 2-(2-fluoro-4-(2-oxo-2-((8-(trifluoromethyl)-[1,2,4]triazolo[1,5-a]pyridin-2-yl)amino)ethyl)phenoxy)nicotinamide]	34
NC(=O)c1cccnc1Oc1ccc(CC(=O)Nc2nc3cc(F)ccn3n2)cc1F [Example 142, 2-(2-fluoro-4-(2-((7-fluoro-[1,2,4]triazolo[1,5-a]pyridin-2-yl)amino)-2-oxoethyl)phenoxy)nicotinamide]	72
NC(=O)c1cccnc1Oc1ccc(CC(=O)Nc2nc3cc(OCc4ccccc4)ccn3n2)cc1F [Example 143, 2-(4-(2-((7-(benzyloxy)-[1,2,4]triazolo[1,5-a]pyridin-2-yl)amino)-2-oxoethyl)-2-fluorophenoxy)nicotinamide]	6
Cn1cc(-c2ccc3nc(NC(=O)Cc4ccc(Oc5ncccc5C(N)=O)c(F)c4)n(CC4CC4)c3c2)cn1 [Example 144, 2-(4-(2-((1-(cyclopropylmethyl)-6-(1-methyl-1H-pyrazol-4-yl)-1H-benzo[d]imidazol-2-yl)amino)-2-oxoethyl)-2-fluorophenoxy)nicotinamide]	5
CP(C)(=O)c1ccc2nc(NC(=O)Cc3ccc(Oc4ncccc4C(N)=O)c(F)c3)n(CC3CC3)c2c1 [Example 145, 2-(4-(2-((1-(cyclopropylmethyl)-6-(dimethylphosphoryl)-1H-benzo[d]imidazol-2-yl)amino)-2-oxoethyl)-2-fluorophenoxy)nicotinamide]	133
CP(C)(=O)c1ccc2sc(NC(=O)Cc3ccc(Oc4ncccc4C(N)=O)c(F)c3)nc2c1 [Example 146]	132
CP(C)(=O)c1cccc2nc(NC(=O)Cc3ccc(Oc4ncccc4C(N)=O)c(F)c3)nn12 [Example 147]	1390

SMILES	IC50 [nM]
CP(C)(=O)c1ccc2c(c1)nc(NC(=O)Cc1ccc(Oc3ncccc3C(N)=O)c(F)c1)n2CC(F)(F)F [Example 148, 2-(4-(2-((5-(dimethyl-phosphoryl)-1-(2,2,2-trifluoroethyl)-1H-benzo[d]imidazol-2-yl)amino)-2-oxoethyl)-2-fluorophenoxy)-nicotinamide]	147
CP(C)(=O)c1ccc2nc(NC(=O)Cc3ccc(Oc4ncccc4C(N)=O)c(F)c3)cn2c1 [Example 149, 2-(4-(2-((6-(dimethyl-phosphoryl)imidazo-[1,2-a]pyridin-2-yl)-amino)-2-oxoethyl)-2-fluorophenoxy)-nicotinamide]	1230
CP(C)(=O)c1ccc2nc(NC(=O)Cc3ccc(Oc4ncccc4C(N)=O)c(F)c3)n(CC(F)F)c2c1 [Example 150, 2-(4-(2-((1-(2,2-difluoroethyl)-6-(dimethylphosphoryl)-1H-benzo[d]imidazol-2-yl)amino)-2-oxo-ethyl)-2-fluoro-phenoxy)nicotinamide]	465
Cc1cccc(-c2nc(NC(=O)Cc3ccc(Oc4ncccc4C(N)=O)c(F)c3)sc2C)n1 [Example 151, 2-(2-fluoro-4-(2-((5-methyl-4-(6-methylpyridin-2-yl)thiazol-2-yl)amino)-2-oxoethyl)phenoxy)nicotinamide]	44
NC(=O)c1cccnc1Oc1ccc(CC(=O)Nc2nc3ccccc3n2CC2CCC2)cc1F [Example 152, 2-(4-(2-((1-(cyclobutylmethyl)-1H-benzo[d]imidazol-2-yl)amino)-2-oxoethyl)-2-fluorophenoxy)nicotinamide]	55
CC(C)n1c(NC(=O)Cc2ccc(Oc3ncccc3C(N)=O)c(F)c2)nc2ccccc21 [Example 153, 2-(2-fluoro-4-(2-((1-isopropyl-1H-benzo[d]imidazol-2-yl)amino)-2-oxoethyl)-phenoxy)nicotinamide]	218
NC(=O)c1cccnc1Oc1ccc(CC(=O)Nc2nc3ccccc3n2CCC(F)(F)F)cc1F [Example 154, 2-(2-fluoro-4-(2-oxo-2-((1-(3,3,3-trifluoropropyl)-1H-benzo[d]-imidazol-2-yl)-amino)ethyl)-phenoxy)nicotin-amide]	42
COCCn1c(NC(=O)Cc2ccc(Oc3ncccc3C(N)=O)c(F)c2)nc2ccccc21 [Example 155, 2-(2-fluoro-4-(2-((1-(2-methoxyethyl)-1H-benzo[d]-imidazol-2-yl)-amino)-2-oxo-ethyl)phenoxy)-nicotinamide]	1930
COCCn1c(NC(=O)Cc2ccc(Oc3ncccc3C(N)=O)c(F)c2)nc2cc(C(N)=O)ccc21 [Example 156, 2-(2-(4-((3-carbamoyl-pyridin-2-yl)oxy)-3-fluorophenyl)-acetamido)-1-(2-methoxyethyl)-1H-benzo[d]-imidazole-5-carboxamide]	3460
COCCn1c(NC(=O)Cc2ccc(Oc3ncccc3C(N)=O)c(F)c2)nc2ccc(OC)cc21 [Example 157, 2-(2-fluoro-4-(2-((6-methoxy-1-(2-methoxyethyl)-1H-benzo[d]-imidazol-2-yl)-amino)-2-oxo-ethyl)phenoxy)-nicotinamide]	804
COCCn1c(NC(=O)Cc2ccc(Oc3ncccc3C(N)=O)c(F)c2)nc2ccc(C(N)=O)cc21 [Example 158, 2-(2-(4-((3-carbamoyl-pyridin-2-yl)oxy)-3-fluorophenyl)-acetamido)-1-(2-methoxyethyl)-1H-benzo[d]-imidazole-6-carboxamide]	1720
NC(=O)c1cccnc1Oc1ccc(CC(=O)Nc2nc3ccccc3n2CC2CCOCC2)cc1F [Example 159, 2-(2-fluoro-4-(2-oxo-2-((1-((tetra-hydro-2H-pyran-4-yl)methyl)-1H-benzo[d]imidazol-2-yl)amino)ethyl)-phenoxy)nicotin-amide]	2180
COc1ccc2nc(NC(=O)Cc3ccc(Oc4ncccc4C(N)=O)c(F)c3)n(CC3CC3)c2c1 [Example 160, 2-(4-(2-((1-(cyclopropyl-methyl)-6-methoxy-1H-benzo[d]-imidazol-2-yl)-amino)-2-oxoethyl)-2-fluorophenoxy)-nicotinamide]	39
NC(=O)c1cccnc1Oc1ccc(CC(=O)Nc2nc3c(F)cccc3n2CC2CC2)cc1F [Example 161, 2-(4-(2-((1-(cyclopropyl-methyl)-4-fluoro-1H-benzo[d]-imidazol-2-yl)-amino)-2-oxoethyl)-2-fluorophenoxy)-nicotinamide]	16
COc1ccc2c(c1)nc(NC(=O)Cc1ccc(Oc3ncccc3C(N)=O)c(F)c1)n2CC1CC1 [Example 162, 2-(4-(2-((1-(cyclopropyl-methyl)-5-methoxy-1H-benzo[d]-imidazol-2-yl)-amino)-2-oxoethyl)-2-fluorophenoxy)-nicotinamide]	47
COc1cccc2c1nc(NC(=O)Cc1ccc(Oc3ncccc3C(N)=O)c(F)c1)n2CC1CC1 [Example 163, 2-(4-(2-((1-(cyclo-propylmethyl)-4-methoxy-1H-benzo[d]imidazol-2-yl)amino)-2-oxoethyl)-2-fluorophenoxy)-nicotinamide]	16
